Test results: patent publication US7323447B2, “Hepatitis C virus inhibitors” (Bristol-Myers Squibb Company, priority 2005, dated 2008)

Biological target: T1, HCV NS3/4A protease complex (J4L6S strain) (Hepatitis C virus genotype 1b, UniProt O92972, C1454S/C1711G)
T1 construct: DNA encoding the recombinant HCV NS3/4A protease complex (amino acids 1027 to 1711) for these strains; inferred from pET21b vector and Ni-NTA purification; made in house; host or cells: Escherichia coli BL21 (DE3), pET21b
T1 sequence (O92972 1027-1711 C1454S/C1711G, one chain of several): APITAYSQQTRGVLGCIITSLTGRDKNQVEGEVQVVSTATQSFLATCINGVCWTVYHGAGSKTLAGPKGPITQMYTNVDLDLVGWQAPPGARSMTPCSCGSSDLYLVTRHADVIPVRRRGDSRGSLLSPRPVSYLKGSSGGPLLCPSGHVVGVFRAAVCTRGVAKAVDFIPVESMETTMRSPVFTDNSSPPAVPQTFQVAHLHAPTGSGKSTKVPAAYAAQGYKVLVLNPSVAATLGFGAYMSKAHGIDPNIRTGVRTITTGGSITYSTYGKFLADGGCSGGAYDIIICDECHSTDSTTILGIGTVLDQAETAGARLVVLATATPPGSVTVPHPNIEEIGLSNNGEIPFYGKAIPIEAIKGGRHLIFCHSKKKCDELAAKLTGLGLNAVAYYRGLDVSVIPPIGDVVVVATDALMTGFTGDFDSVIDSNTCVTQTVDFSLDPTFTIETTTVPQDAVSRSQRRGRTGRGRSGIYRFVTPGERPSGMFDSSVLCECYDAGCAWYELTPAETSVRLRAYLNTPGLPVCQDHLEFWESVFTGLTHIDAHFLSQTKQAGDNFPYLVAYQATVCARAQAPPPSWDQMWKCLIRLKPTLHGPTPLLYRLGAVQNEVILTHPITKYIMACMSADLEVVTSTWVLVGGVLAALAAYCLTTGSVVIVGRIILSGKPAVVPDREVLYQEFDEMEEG
Test: FRET peptide assay to monitor HCV NS3/4A proteolytic activity, J4L6S strain
Assay type: biochemical
Description: HCV NS3 protease complexes, derived from the BMS strain, H77 strain or J4L6S strain, were generated, as described below. These purified recombinant proteins were generated for use in a homogeneous assay (see below) to provide an indication of how effective compounds of the present disclosure would be in inhibiting HCV NS3 proteolytic activity.
The H77 and J4L6S strains were used for production of recombinant NS3/4A protease complexes. DNA encoding the recombinant HCV NS3/4A protease complex (amino acids 1027 to 1711) for these strains was manipulated as described by P. Gallinari et al. (see Gallinari P, Paolini C, Brennan D, Nardi C, Steinkuhler C, De Francesco R. Biochemistry. 38(17):5620-32, (1999)). Briefly, a three-lysine solubilizing tail was added at the 3′-end of the NS4A coding region. The cysteine in the P1 position of the NS4A-NS4B cleavage site (amino acid 1711) was changed to a glycine to avoid the proteolytic cleavage of the lysine tag. Furthermore, a cysteine to serine mutation was introduced by PCR at amino acid position 1454 to prevent the autolytic cleavage in the NS3 helicase domain. […]

With `C=C[C@@H]1C[C@]1(NC(=O)[C@@H]1C[C@@H](OC(=O)N2Cc3cccc(F)c3C2)CN1C(=O)[C@@H](OC(=O)NC(C)(C)C)C(C)(C)C)C(=O)NS(=O)(=O)C1CC1` [Example 56Compound 56] the IC50 was 9.8 nM.
